The values that follow come from patent US20220096539A1, “SALT NANOPARTICLES AND COMPOSITIONS AND METHODS OF USE THEREOF” (priority 2019, published 2022).

The test system of series [1] is PC-3 cells. Kind of series: Necrosis inhibition study (LDH release). The settings on record: PC-3 cells pre-incubated with inhibitor 1 h, then PSCNPs. It is filed as cell-based, human. How it is done:
PC-3 cells were plated overnight at a density of 1×10^4 cells per well in a 96-well plate. These cells were pre-treated with necrosis inhibitor glycine (5 mM) or capsase-1 inhibitor Ac-YVAD-cmk (30 μg/mL) for 1 h, and then incubated with […] (160 or 320 μg/mL) for 6 h. Cell without glycine or Ac-YVAD-cmk treatment were studied as controls. Supernatants were collected and the LDH contents were analyzed by LDH Assay Kit-WST (CT01-05, Dojindo, Japan). The results were normalized to PBS treated control cells.
(LDH in the medium is a marker of cell lysis.)

In series [2] the test system is PC-3 cells. It is filed as cell-based, human. The settings on record: MTT 24 h; NaCl salt at 160 μg/mL; free phospholipid. Here is the method: Cells were seeded into 96-well plates at the density of 1×10^4 cells per well and incubated overnight. […] MTT assays (3-(4,5-dimethylthiazol-2-yl)-2,5-diphenyl tetrazolium bromide, Sigma) were performed following the manufacture's protocol. The absorbance at 570 nm was measured by a microplate reader (Synergy Mx, BioTeK). All measurements were performed in sextuplicate.

A further series relates to SCC VII cells. Kind of series: CRT presentation, ATP and HMGB-1 release. Particulars: control. It is filed as cell-based, murine. Here is the method:
(§1) CRT expression on cell surface in flow cytometry assessment. T24, UMUC2, UPPL-1541, BBN963, B16F10, and SCC VII cells are seeded into the 6 wells plate at 1×10^6 per well. After overnight incubation, the cells were treated with NaCl particles ([…]) (160 μg/mL) for 2 h. PBS treated cells were used as a control. All the cells were collected by cell […], and incubated with an Alexa Fluor® 647-conjugated anti-CRT antibody (ab196159, 1/500. Abcam) for 30 min at 4° C. The cells were incubated in 500 μL PBS containing 50 μg/mL propidium iodide before washing and assessment on a flow cytometer. The data were expressed in histogram compared to the PBS treated control cells. Cells were seeded into 96-well plates at the density of 1×10^4 cells per well and incubated overnight. Then the cells were treated with […] dispersed in PBS at a dose range of 13.2-320 μg/mL for 1, 2, 4 h and 24 h. Cell supernatant was collected after 1-4 h incubation and tested in ATP 1step Luminescence Assay System, 100 mL ATP Assay Kit (PerkinElmer, US) following the manufacture's protocol. […] The luminescence was measured by a microplate reader (Synergy Mx, BioTeK). All measurements were performed in sextuplicate. Cell supernatant was collected after 24 h incubation and tested in an ELISA kit (IBL International GmbH), according to the manufacturer's instructions.

The subject of another series is B16F10 cells. Kind of series: CRT presentation, ATP and HMGB-1 release. The settings on record: control. It is filed as cell-based, murine. How it is done: as §1
The format of series [3] is physicochemical. Particulars: pH 5.5. Here is the method:
were dispersed in 100 μl ammonium acetate buffers (pH=5.5 or pH=7) and added into a Slide-A-LyzerTM MINI Dialysis Device (MWCO=2K, Cat #69550, Thermofisher, US). Place the unite into a 5 mL Eppendorf tube containing 4.5 mL ammonium acetate buffer. Keep the tube on the shaker (20 rpm) at room temperature. […] All measurements were performed following the manufacture's protocol and repeated in sextuplicate.

For a further series, the system named is PC-3 tumor xenografts. Kind of series: In vivo therapy study, PC-3 tumor model. The settings on record: mouse. How it is done:
Animal studied were performed according to a protocol approved by the Institutional Animal Care and Use Committee (IACUC) of the University of Georgia. The animals were maintained under pathogen-free conditions. PC-3 tumor model was generated by subcutaneously injecting 2×10^6 cells in 50 μL PBS into the right flank of 5-6 week old male athymic nude mice (Charles River). U-87 MG tumor model was generated in female athymic nude mice (Charles River) following the same method as PC-3 model. B16F10 tumor model was generated by subcutaneously injecting 2×10^5 cells in 50 μL PBS into the right flank of 5-6 week old female C57BU6 mice (Charles River). SCC VII tumor model was generated by subcutaneously injecting […] in 50 μL PBS into the right flank of 5-6 week old female C3H/HeN mice (Charles River). UPPL-1541 tumor model was generated by subcutaneously injecting 1×10^6 cells in 50 μL PBS into the right flank of 5-6 week old female C57BL6 mice (Charles River).
For therapy studies, PC-3 tumor bearing mice were randomly divided into 2 groups (n=5 for each group). When the average tumor volume was about 100 mm^3, PSCNPs (9 mg/mL, 50 μL) were intratumorally injected on day 0, 2 and 4. For control, saline at the same volume was injected. […] The tumor was measured in two dimensions with a caliper, and the tumor volume was estimated as (length)×(width) 2/2. […]

On to Ac-YVAD-cmk, for which the “reduction of PSCNP-induced LDH release” value with PC-3 cells [1] is listed as 60.9%. On the same count and under the same terms, under `NCC(=O)O` [glycine] stands 72.9%.

Take “1,2-distearoyl-sn-glycero-3-phosphoethanolamine-N-[amino(polyethylene glycol)-2000] (ammonium salt) [free phospholipid]”: the “toxicity to PC-3 cells” value in the series with PC-3 cells [2] was “no toxicity”. Regarding `[Cl-].[Na+]` [NaCl salt, NaCl], the “toxicity to PC-3 cells” value in the series on PC-3 cells [2] was “no toxicity”. The “release of ICD biomarkers (ATP and HMGB-1)” value in the series with SCC VII cells and with B16F10 cells was “negligible impact” in each case. “Phospholipid-coated Sodium Chloride Nanoparticles [PSCNPs]”: the “effect of lowering pH to 5.5 on nanoparticle degradation” value in series [3] is reported as “did not accelerate nanoparticle degradation”. Moreover, the “toxicity in major organs” value in the series with PC-3 tumor xenografts is on record as “no sign of toxicity”.
